Experiments:
Coagulation factor X = Coagulation factor X (Homo sapiens, UniProt P00742); assay: Inhibitory constant against human purified Coagulation factor Xa (fXa)
Coagulation factor IX = Coagulation factor IX (Homo sapiens, UniProt P00740); assay: Inhibitory constant against human purified Coagulation factor IXa (fIXa)
Trypsin = Trypsin (Homo sapiens, UniProt P07477+P07478+P35030); assay: Inhibitory constant against human trypsin; type: protein assay
Prothrombin = Prothrombin (Homo sapiens, UniProt P00734); assay: Inhibitory constant against human thrombin

Chain of Coagulation factor IX (P00740 47-191 limits assumed): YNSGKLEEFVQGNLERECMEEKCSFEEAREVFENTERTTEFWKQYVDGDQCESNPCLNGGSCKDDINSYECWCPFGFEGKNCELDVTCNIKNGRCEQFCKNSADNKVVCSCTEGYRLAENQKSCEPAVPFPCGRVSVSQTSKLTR
Chain of Coagulation factor IX (P00740 227-461 limits assumed): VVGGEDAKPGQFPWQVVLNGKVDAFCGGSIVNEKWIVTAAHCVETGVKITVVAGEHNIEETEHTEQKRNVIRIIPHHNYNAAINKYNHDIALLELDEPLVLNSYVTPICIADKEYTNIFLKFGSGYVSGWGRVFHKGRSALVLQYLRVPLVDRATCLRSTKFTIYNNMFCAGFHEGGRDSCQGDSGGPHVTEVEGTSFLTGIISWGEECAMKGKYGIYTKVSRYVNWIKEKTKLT
Chain of Coagulation factor X (P00742 41-179 limits assumed): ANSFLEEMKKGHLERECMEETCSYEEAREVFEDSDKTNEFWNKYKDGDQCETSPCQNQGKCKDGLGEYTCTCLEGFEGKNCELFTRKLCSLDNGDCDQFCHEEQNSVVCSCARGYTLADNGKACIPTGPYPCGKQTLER
Chain of Coagulation factor X (P00742 235-488 limits assumed): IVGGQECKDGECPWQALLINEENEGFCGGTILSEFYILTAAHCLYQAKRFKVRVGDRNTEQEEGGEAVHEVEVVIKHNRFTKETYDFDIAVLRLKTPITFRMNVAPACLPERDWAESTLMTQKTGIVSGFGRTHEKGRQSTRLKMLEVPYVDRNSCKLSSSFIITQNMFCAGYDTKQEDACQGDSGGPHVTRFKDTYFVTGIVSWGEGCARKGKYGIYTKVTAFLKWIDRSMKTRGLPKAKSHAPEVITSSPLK

| SMILES | Ki (Coagulation factor X) | Ki (Coagulation factor IX) | Ki (Trypsin) | Ki (Prothrombin) |
| --- | --- | --- | --- | --- |
| N#Cc1ccc(NC(=O)C(Cc2ccccc2)c2csc3ccc(C(=N)N)cc23)cc1 (centres undefined) | > 8000 nM | 1730 nM |  |  |
| CCOC(=O)[C@@H]1CCCCC1NC(=O)C(Cc1ccccc1)c1coc2ccc(C(=N)N)cc12 (some centres undefined) | 270 nM | 1190 nM | > 4200 nM |  |
| N=C(N)c1ccc2scc([C@@H](Cc3ccccc3)C(=O)Nc3ccc4ncsc4c3)c2c1 | 2700 nM | 480 nM |  |  |
| COC(=O)[C@H]1CCCCC1NNC(=O)C(Cc1ccccc1)c1csc2ccc(C(=N)N)cc12 (some centres undefined) | 300 nM | 310 nM |  |  |
| N=C(N)c1ccc2scc([C@H](Cc3ccccc3)C(=O)NC3CCCC[C@H]3C(=O)NCc3ccccc3)c2c1 (some centres undefined) | > 9000 nM | > 32000 nM |  |  |
| N=C(N)c1ccc2scc(C(Cc3ccccc3)C(=O)Nc3ccc4ncsc4c3)c2c1 (centres undefined) | > 8000 nM | 780 nM |  |  |
| N=C(N)c1ccc2scc(C(Cc3cccc4ccccc34)C(=O)Nc3ccc(-n4cnc5ccccc54)cc3)c2c1.O=C(O)C(F)(F)F (centres undefined) | 740 nM | 230 nM | 3900 nM | > 6300 nM |
| CC1CCC(NC(=O)C(Cc2ccccc2)c2csc3ccc(C(=N)N)cc23)CC1 (centres undefined) | 3240 nM | 580 nM |  |  |
| N=C(N)c1ccc2scc(C(CC(=O)Nc3ccc(-n4cnc5ccccc54)cc3)Cc3ccccc3)c2c1.O=C(O)C(F)(F)F (centres undefined) | 280 nM | 1250 nM | > 4200 nM | 4200 nM |
| CCOC(=O)[C@@H]1CCCCC1NC(=O)C(Cc1ccccc1)C1=CS(=O)(=O)c2ccc(C(=N)N)cc21 (some centres undefined) | > 9000 nM | 8530 nM | > 4200 nM |  |
| N=C(N)c1ccc2[nH]cc(C(Cc3ccccc3)C(=O)Nc3ccc(-n4cnc5ccccc54)cc3F)c2c1.O=C(O)C(F)(F)F (centres undefined) |  |  | 340 nM | 13000 nM |
| N=C(N)c1ccc2scc(C(Cc3ccccc3)C(=O)Nc3ccc(-n4ccc(C(F)(F)F)n4)cc3)c2c1 (centres undefined) | 410 nM | 130 nM |  |  |
| COC(=O)[C@H]1CCCCC1NNC(=O)[C@H](Cc1ccccc1)c1csc2ccc(C(=N)N)cc12 (some centres undefined) | 270 nM | 280 nM |  |  |
| N=C(N)c1ccc2[nH]cc(C(Cc3ccccc3)C(=O)Nc3ccc(-c4ccccc4S(N)(=O)=O)cc3)c2c1 (centres undefined) |  |  | 150 nM | 600 nM |
| N=C(N)c1ccc2[nH]cc(C(Cc3ccc(N)cc3)C(=O)Nc3ccc(-n4cnc5ccccc54)cc3)c2c1.O=C(O)C(F)(F)F (centres undefined) |  |  | > 4200 nM | 4200 nM |
| CCOC(=O)[C@@H]1CCCCC1NC(=O)[C@@H](Cc1ccccc1)c1cccc2ccc(C(=N)N)cc12 (some centres undefined) | 530 nM | 240 nM | > 4200 nM |  |
| Cc1ccc(F)cc1NC(=O)C(Cc1ccccc1)c1csc2ccc(C(=N)N)cc12 (centres undefined) | > 8000 nM | 960 nM |  |  |
| N=C(N)c1ccc2scc(C(Cc3ccccc3)C(=O)Nc3ccc(S(=O)(=O)Nc4ccc(Cl)nn4)cc3)c2c1 (centres undefined) | 5360 nM | 930 nM |  |  |
| N=C(N)c1ccc2scc(C(Cc3ccccc3)C(=O)Nc3ccc(-n4cnc(-c5ccccc5)c4)cc3)c2c1.O=C(O)C(F)(F)F (centres undefined) | 2020 nM | 390 nM | > 4200 nM | > 6300 nM |
| N=C(N)c1ccc2scc(C(Cc3ccccc3)C(=O)Nc3ccc(Oc4ccccc4)cc3)c2c1 (centres undefined) | 450 nM | 250 nM |  |  |
| COC(=O)[C@H]1CCCCC1NNC(=O)[C@@H](Cc1ccccc1)c1csc2ccc(C(=N)N)cc12 (some centres undefined) | > 9000 nM | 41300 nM |  |  |
| N=C(N)c1ccc2scc(C(Cc3ccccc3)C(=O)Nc3ccc4ncsc4c3)c2c1 (single isomer, unassigned) | 5700 nM | 14200 nM |  |  |

Further molecules by falling Ki (Coagulation factor X), results first:

| Ki (Coagulation factor X) | Ki (Coagulation factor IX) | Ki (Trypsin) | Ki (Prothrombin) | SMILES |
| --- | --- | --- | --- | --- |
| 200 nM | 3500 nM |  |  | N=C(N)c1ccc2scc([C@H](Cc3ccccc3)C(=O)NC3CCCC[C@H]3C(=O)O)c2c1 (some centres undefined) |
| 180 nM | 120 nM |  |  | CCOC(=O)[C@@H]1CCCCC1NC(=O)[C@@H](Cc1ccccc1)c1csc2ccc(C(=N)N)cc12 (some centres undefined) |
| 130 nM | 430 nM |  |  | CCNC(=O)[C@@H]1CCCCC1NC(=O)[C@@H](Cc1ccccc1)c1csc2ccc(C(=N)N)cc12 (some centres undefined) |
| 120 nM | 98 nM | 1020 nM | > 6300 nM | N=C(N)c1ccc2scc(C(Cc3ccccc3)C(=O)Nc3ccc(-n4cnc5ccccc54)cc3)c2c1.O=C(O)C(F)(F)F (centres undefined) |
| 120 nM | 140 nM |  |  | COC(=O)[C@@H]1CCCCC1NC(=O)[C@@H](Cc1ccccc1)c1csc2ccc(C(=N)N)cc12 (some centres undefined) |
| 90 nM | 500 nM |  |  | COC(=O)[C@@H]1CCCCC1NNC(=O)C(Cc1ccccc1)c1csc2ccc(C(=N)N)cc12 (some centres undefined) |
| 71 nM | 220 nM | 270 nM | > 270 nM | CCC(C(=O)Nc1ccc(-n2cnc3ccccc32)cc1)c1csc2ccc(C(=N)N)cc12.O=C(O)C(F)(F)F (centres undefined) |
| 65 nM | 280 nM |  |  | N=C(N)c1ccc2scc([C@H](Cc3ccccc3)C(=O)NC3CCCC[C@H]3C(=O)NCC(N)=O)c2c1 (some centres undefined) |
| 47 nM | 74 nM | > 4200 nM | 4200 nM | N=C(N)c1ccc2scc(C(Cc3ccc(N)cc3)C(=O)Nc3ccc(-n4cnc5ccccc54)cc3)c2c1.O=C(O)C(F)(F)F (centres undefined) |
| 22 nM | 4900 nM | 60 nM | 390 nM | N=C(N)c1ccc2scc(C3(C(=O)Nc4ccc(-n5cnc6ccccc65)cc4)CC3)c2c1.O=C(O)C(F)(F)F |
| 19 nM | 340 nM | 1500 nM |  | COC(=O)[C@@H]1CCCCC1NC(=O)C(Cc1ccccc1)c1c[nH]c2ccc(C(=N)N)cc12 (some centres undefined) |
